Experimental data as given in patent US20250179103A1, “6-OXODECAHYDROPYRROLO[1,2-A][1,5]DIAZOCINE AND 6-OXODECAHYDRO-4H-PYRROLO[2,1-D][1,5]THIAZOCINE DERIVATIVES AS STAT3 AND STAT6 MODULATORS FOR THE TREATMENT OF CANCER AND INFLAMMATORY CONDITIONS” (Recludix Pharma, Inc., priority 2022, published 2025).
pIC50: −log10 of the molar value.

Test system: pY641-STAT6 in Peripheral Blood Mononuclear Cells (PBMC)
Experiment: MSD-pSTAT-PBMC Assay (pSTAT6, IL-4 stimulated)
Format: cell-based, Human
Settings: Homo sapiens, compound 3 hrs, then 1 ng/mL IL-4 for 10 min
Excerpt: Cryopreserved Peripheral Blood Mononuclear Cells (PBMC) are from AllCells. Recombinant Human IL-4 and IL-6 are from Peprotech. Mouse monoclonal anti-STAT3 antibody, rabbit monoclonal anti-pY705-STAT3 antibody, rabbit monoclonal Anti-pY641-STAT6 antibody, and lysis buffer are from Cell Signaling Technology (CST). Mouse monoclonal anti-STAT6 antibody is from BioLegend. Assay plates, blocker, and anti-rabbit secondary antibody are from Meso Scale Discovery (MSD).
Cryopreserved PBMCs were thawed out and allowed to recover overnight in IMDM+10% heat-inactivated FBS prior to plating 50,000 (STAT3) or 25,000 (STAT6) cells per well in 96-well U-bottom tissue culture plates. Cells were treated with compound for 3 hrs, then stimulated with 10 ng/mL IL-6 (STAT3) or 1 ng/mL IL-4 (STAT6) for 10 min. Cells were then spun down and washed with ice-cold PBS prior to lysing the cell pellet with 1× lysis buffer (CST) with 1×HALT protease and phosphatase inhibitor cocktail (Thermo). Lysates were transferred to and incubated overnight at 4° C. with shaking in QuickPlex 96-well high bind assay plates (MSD) pre-coated overnight with 30 μL per well of 0.6 μg/mL mouse monoclonal anti-STAT3 antibody (STAT3) or 2 μg/mL mouse monoclonal anti-STAT6 antibody (STAT6) in 1×PBS, and pre-blocked for 1 hour with 3% Blocker-A (MSD). Captured protein in the assay plates were then washed and probed with 25 μL per well of 0.25 μg/ml rabbit monoclonal anti-pY705-STAT3 antibody (STAT3) or […] rabbit monoclonal Anti-pY641-STAT6 antibody (STAT6) in 1% Blocker-A for 1 hour at room temperature with shaking, then washed and probed with 25 ul per well of 1 ug/ml Sulfo-TAG Labeled Goat Anti-Rabbit Antibody (MSD) in 1% Blocker-A for 1 hour at room temperature with shaking. Assay plates were then washed and 150 μL of 1× Read Buffer-T (MSD) was added to each well prior to reading on an SQ120 MSD Plate Reader. Assay signal from each sample was subtracted by the signal from unstimulated control wells and normalized to DMSO control wells. IC50 values were calculated using Graph Pad Prism Dose-Response Nonlinear Regression with variable slope. For both pSTAT3 and pSTAT6 A=≤100 nM; B=>100-1000 nM; C=>1000-3000 nM; and D=>3 μM.

Row | SMILES | pIC50
1 | CCCOC(=O)[C@H](C)NP(=O)(Oc1ccccc1)C(F)c1ccc2ccc(C(=O)N[C@H]3CN(C(=O)c4noc5c4CCCC5)CC[C@H]4CC[C@@H](C(=O)N5CCOCC5)N4C3=O)cc2c1 (stereo partly drawn) [Compound 425, propyl ((fluoro(7-(((5S,8S,10aR)-8-(morpholine-4-carbonyl)-6-oxo-3-(4,5,6,7-tetrahydro-benzo[d]isoxazole-3-carbonyl)decahydropyrrolo [1,2-a][1,5]diazocin-5-yl)carbamoyl)naphthalen-2-yl)methyl) (phenoxy)phosphoryl)-L-alaninate] | 5.52 to 6.00
2 | CCCOC(=O)[C@H](C)NP(=O)(Oc1ccccc1)C(F)c1ccc2ccc(C(=O)N[C@H]3CN(S(=O)(=O)CCC)CC[C@H]4CC[C@@H](C(=O)N5CCOCC5)N4C3=O)cc2c1 (stereo partly drawn) [Compound 427, propyl ((fluoro(7-(((5S,8S,10aR)-8-(morpholine-4-carbonyl)-6-oxo-3-(propylsulfonyl)decahydro-pyrrolo [1,2-a][1,5]diazocin-5-yl)carbamoyl)naphthalen-2-yl)methyl) (phenoxy)phosphoryl)-L-alaninate] | < 5.52
3 | Cc1ccc2onc(C(=O)N3CC[C@H]4CC[C@@H](C(=O)N5C[C@H](c6cc[nH]c(=O)c6)CC56CC6)N4C(=O)[C@@H](NC(=O)c4ccc5ccc(C(F)(F)P(=O)(OCCSC(=O)C(C)(C)C)OCCSC(=O)C(C)(C)C)cc5c4)C3)c2c1 [Compound 434, S,S′-((((difluoro(7 (((5S,8S,10aR)-3-(5-methylbenzo [d]isoxazole-3-carbonyl)-6-oxo-8-((S)-6-(2-oxo-1,2-dihydropyridin-4-yl)-4-azaspiro[2.4]heptane-4-carbonyl)decahydro-pyrrolo [1,2-a][1,5]diazocin-5-yl)carbamoyl)naphthalen-2-yl)methyl)phosphoryl)bis (oxy))bis (ethane-2,1-diyl)) bis(2,2-dimethyl-propanethioate)] | ≥ 7.00
4 | CCCOC(=O)[C@H](C)NP(=O)(Oc1ccccc1)C(F)c1ccc2ccc(C(=O)N[C@H]3CN(C(=O)c4noc5ccc(C)cc45)CC[C@H]4CC[C@@H](C(=O)N5CCN(c6nsc7ccccc67)CC5)N4C3=O)cc2c1 (stereo partly drawn) [Compound 411, propyl (((7-(((5S,8S,10aR)-8-(4-(benzo[d]isothiazol-3-yl)piperazine-1-carbonyl)-3-(5-methylbenzo [d]isoxazole-3-carbonyl)-6-oxodeca-hydropyrrolo [1,2-a][1,5]diazocin-5-yl)carbamoyl)naphthalen-2-yl)fluoromethyl) (phenoxy)phosphoryl)-L-alaninate] | < 5.52
5 | CCCOC(=O)[C@H](C)NP(=O)(Oc1ccccc1)C(F)c1ccc2ccc(C(=O)N[C@H]3CN(C(=O)c4noc5ccc(C)cc45)CC[C@H]4CC[C@@H](C(=O)N5C[C@@H](C)O[C@@H](C)C5)N4C3=O)cc2c1 (stereo partly drawn) [Compound 440, propyl (((7-(((5S,8S,10aR)-8-((2R,6S)-2,6-dimethyl-morpholine-4-carbonyl)-3-(5-methylbenzo [d]isoxazole-3-carbonyl)-6-oxodeca-hydropyrrolo [1,2-a][1,5]diazocin-5-yl)carbamoyl)naphthalen-2-yl)fluoromethyl) (phenoxy)phosphoryl)-L-alaninate] | ≥ 7.00
6 | CCCOC(=O)[C@H](C)NP(=O)(Oc1ccccc1)C(F)c1ccc2ccc(C(=O)N[C@H]3CN(C(=O)c4ncn5ccccc45)CC[C@H]4CC[C@@H](C(=O)N5CCOCC5)N4C3=O)cc2c1 (stereo partly drawn) [Compound 423, propyl ((fluoro(7-(((5S,8S,10aR)-3-(imidazo[1,5-a]pyridine-1-carbonyl)-8-(morpholine-4-carbonyl)-6-oxodecahydro-pyrrolo [1,2-a][1,5]diazocin-5-yl)carbamoyl)naphthalen-2-yl)methyl) (phenoxy)phosphoryl)-L-alaninate] | < 5.52
7 | CCCOC(=O)[C@H](C)NP(=O)(Oc1ccccc1)C(F)c1ccc2ccc(C(=O)N[C@H]3CN(C(=O)c4noc5ccc(Cl)cc45)CC[C@H]4CC[C@@H](C(=O)N5CCOCC5)N4C3=O)cc2c1 (stereo partly drawn) [Compound 430, propyl (((7-(((5S,8S,10aR)-3-(5-chlorobenzo[d]isoxazole-3-carbonyl)-8-(morpholine-4-carbonyl)-6-oxodecahydro-pyrrolo [1,2-a][1,5]diazocin-5-yl)carbamoyl)naphthalen-2-yl)fluoromethyl) (phenoxy)phosphoryl)-L-alaninate] | ≥ 7.00
8 | CCCOC(=O)[C@H](C)NP(=O)(Oc1ccccc1)C(F)c1ccc2ccc(C(=O)N[C@H]3CN(C(C)=O)CC[C@H]4CC[C@@H](C(=O)N5CCC(c6cccnc6)C5)N4C3=O)cc2c1 (stereo partly drawn) [Compound 409, propyl (((7-(((5S,8S,10aR)-3-acetyl-6-oxo-8-(3-(pyridin-3-yl)pyrrolidine-1-carbonyl)decahydropyrrolo [1,2-a] [1,5]diazocin-5-yl)carbamoyl)naphthalen-2-yl)fluoromethyl) (phenoxy)phosphoryl)-L-alaninate] | 5.52 to 6.00
9 | CCCOC(=O)[C@H](C)NP(=O)(Oc1ccccc1)C(F)c1ccc2ccc(C(=O)N[C@H]3CN(C(=O)c4noc5ccc(C)cc45)CC[C@H]4CC[C@@H](C(=O)N5C[C@@H]6C[C@H]5CO6)N4C3=O)cc2c1 (stereo partly drawn) [Compound 414, propyl (((7-(((5S,8S,10aR)-8-((1S,4S)-2-oxa-5-azabicyclo [2.2.1]heptane-5-carbonyl)-3-(5-methylbenzo [d]isoxazole-3-carbonyl)-6-oxodeca-hydropyrrolo [1,2-a][1,5]diazocin-5-yl)carbamoyl)naphthalen-2-yl)fluoromethyl) (phenoxy)phosphoryl)-L-alaninate] | ≥ 7.00
10 | CCCOC(=O)[C@H](C)NP(=O)(Oc1ccccc1)C(F)c1ccc2ccc(C(=O)N[C@H]3CN(C(=O)c4ncn5c4CCCC5)CC[C@H]4CC[C@@H](C(=O)N5CCOCC5)N4C3=O)cc2c1 (stereo partly drawn) [Compound 429, propyl ((fluoro(7-(((5S,8S,10aR)-8-(morpholine-4-carbonyl)-6-oxo-3-(5,6,7,8-tetrahydro-imidazo [1,5-a]pyridine-1-carbonyl)decahydropyrrolo [1,2-a][1,5]diazocin-5-yl)carbamoyl)naphthalen-2-yl)methyl) (phenoxy)phosphoryl)-L-alaninate] | < 5.52
11 | CCCOC(=O)[C@H](C)NP(=O)(Oc1ccccc1)[C@@H](F)c1ccc2ccc(C(=O)N[C@H]3CN(C(=O)c4noc5ccc(C)cc45)CC[C@H]4CC[C@@H](C(=O)N5C(=O)N(c6cccnc6)C(=O)C56CC6)N4C3=O)cc2c1 (stereo partly drawn) [Compound 418, propyl (((R)-(7-(((5S,8S,10aR)-8-(5,7-dioxo-6-(pyridin-3-yl)-4,6-diazaspiro [2.4]heptane-4-carbonyl)-3-(5-methylbenzo [d]isoxazole-3-carbonyl)-6-oxodeca-hydropyrrolo [1,2a][1,5]diazocin-5-yl)carbamoyl)naphthalen-2-yl)fluoromethyl) (phenoxy)phosphoryl)-L-alaninate] | ≥ 7.00
12 | CCCOC(=O)[C@H](C)NP(=O)(Oc1ccccc1)C(F)c1ccc2ccc(C(=O)N[C@H]3CN(C(=O)c4noc5ccc(C)cc45)CC[C@H]4CC[C@@H](C(=O)N5CCOC[C@H]5c5ccccc5)N4C3=O)cc2c1 (stereo partly drawn) [Compound 413, propyl ((fluoro(7-(((5S,8S,10aR)-3-(5-methylbenzo [d]isoxazole-3-carbonyl)-6-oxo-8-((R)-3-phenyl-morpholine-4-carbonyl)decahydro-pyrrolo [1,2-a][1,5]diazocin-5-yl)carbamoyl)naphthalen-2-yl)methyl) (phenoxy)phosphoryl)-L-alaninate] | ≥ 7.00
13 | CCCC(=O)SCCOP(=O)(OCCSC(=O)CCC)C(F)(F)c1ccc2ccc(C(=O)N[C@H]3CN(C(=O)c4noc5ccc(C)cc45)CC[C@H]4CC[C@@H](C(=O)N5C[C@H](c6ccn(C)c(=O)c6)CC56CC6)N4C3=O)cc2c1 [Compound 439, S,S′-((((difluoro(7 (((5S,8S,10aR)-8-((S)-6-(1-methyl-2-oxo-1,2-dihydropyridin-4-yl)-4-azaspiro[2.4]heptane-4-carbonyl)-3-(5-methylbenzo [d]isoxazole-3-carbonyl)-6-oxodeca-hydropyrrolo [1,2-a][1,5]diazocin-5-yl)carbamoyl)naphthalen-2-yl)methyl)phosphoryl)bis (oxy))bis (ethane-2,1-diyl)) dibutanethioate] | ≥ 7.00
